This is an account of results in patent US11123355B2, “Antiviral benzyl-amine phosphodiamide compounds” (Merck Sharp & Dohme Corp., priority 2016, dated 2021).

A word on the IC50: it is the concentration that gives 50% inhibition.

Read-outs that look alike come from different tables or passages of the source.

In this test the test system is HIV-1 (H9/IIB strain). The experiment in a line: Multiple Round HIV-1 Infection Assay (Viking Assay) in MT4-GFP cells. In kind it is cell-based. The settings on record: inhibition of reproductive ratio R0. As for the experimental part:
Assessing antiviral potency in a Multiple Round HIV-1 Infection Assay (Viking Assay) The antiviral activity of the tenofovir prodrugs of the Examples herein was assessed in an assay that measures the rate of replication of HIV in cell culture, termed the Viking assay (VIral KINetics in Green cells) and performed as follows. HIV-1 replication was monitored using MT4-gag-GFP clone D3 (hereafter designated MT4-GFP), which are MT-4 cells modified to harbor a GFP reporter gene, the expression of which is dependent on the HIV-1 expressed proteins tat and rev. Productive infection of an MT4-GFP cell with HIV-1 results in GFP expression approximately 24 h post-infection. MT4-GFP cells were maintained at 37° C./5% CO2/90% relative humidity in RPMI 1640 supplemented with 10/o fetal bovine serum, 100 U/ml penicillin/streptomycin, and 400 μg/ml G418 to maintain the reporter gene. For infections, MT4-GFP cells were placed in the same medium lacking G418 and infected overnight with HIV-1 (H9/IIB strain) virus at an approximate multiplicity of infection of 0.01 in the same incubation conditions. Cells were then washed and re-suspended in either RPMI 1640 supplemented with 10% or 50% normal human serum (NHS) at 1.6×10^5 cells/mL (10% NHS or 50% NHS, respectively). Compound plates were prepared by dispensing compounds dissolved in DMSO into wells of 384 well poly-D-lysine-coated plates (0.2 μl/well) using an ECHO acoustic dispenser. Each compound was tested in a 10-point serial 3-fold dilution (typical final concentrations: 8.4 μM-0.42 nM). Controls included no inhibitor (DMSO only) and a combination of three antiviral agents (efavirenz, indinavir, an in-house integrase strand transfer inhibitor at final concentrations of 4 μM each). Cells were added (50 μL/well) to compound plates and the infected cells were maintained at 37° C./5% CO2/90% relative humidity.
Infected cells were quantified at two time points, ˜48 h and ˜72 h post-infection, by counting the number of green cells in each well using an Acumen eX3 scanner. The increase in the number of green cells over ˜24 h period gives the reproductive ratio, R0, which is typically 5-15 and has been shown experimentally to be in logarithmic phase (data not shown). Inhibition of R0 is calculated for each well, and IC50s determined by non-linear 4-parameter curve fitting.

The mark [1] stands for this setting: MT4-GFP cells infected with HIV-1, 10% normal human serum, read-out: Viking, IC50 (10% NHS).
Where [2] appears, read: MT4-GFP cells infected with HIV-1, 50% normal human serum, read-out: Viking, IC50 (50% NHS).

For the compound `CCCOC(=O)C(C)(C)NP(=O)(CO[C@H](C)Cn1cnc2c(N)ncnc21)N[C@H](C)c1ccccc1OC` (stereo partly drawn) [Example 20B, propyl 2-(((R)-((((R)-1-(6-amino-9H-purin-9-yl)propan-2-yl)oxy)methyl)(((R)-1-(2-methoxyphenyl)ethyl)amino)phosphoryl)a-mino)-2-methylpropanoate and propyl 2-(((S)-((((R)-1-(6-amino-9H-purin-9-yl)propan-2-yl)oxy)methyl)(((R)-1-(2-methoxyphenyl)ethyl)amino)phosphoryl)a-mino)-2-methylpropanoate], the IC50 is 9.5 nM under setting [1] and 53 nM under setting [2].
For `CCCOC(=O)C(C)(C)N[P@](=O)(CO[C@H](C)Cn1cnc2c(N)ncnc21)N(C)[C@H](C)c1ccc(OC(F)(F)F)cc1` [Example 33A, propyl 2-(((R)-((((R)-1-(6-amino-9H-purin-9-yl)propan-2-yl)oxy)methyl)(methyl((R)-1-(4-(trifluoromethoxy)phenyl)ethyl)amino)phos-phoryl)amino)-2-methylpropanoate and propyl 2-(((S)-((((R)-1-(6-amino-9H-purin-9-yl)propan-2-yl)oxy)methyl)(methyl((R)-1-(4-(trifluoromethoxy)phenyl)ethyl)amino)phos-phoryl)amino)-2-methylpropanoate], the concentration for half-maximal inhibition (IC50) by setting is: under setting [1], 25 nM; under setting [2], 84 nM.
For `CCCOC(=O)C(C)(C)N[P@@](=O)(CO[C@H](C)Cn1cnc2c(N)ncnc21)N[C@H](C)c1ccc(Cl)cc1C` [Example 29A, propyl 2-(((R)-((((R)-1-(6-amino-9H-purin-9-yl)propan-2-yl)oxy)methyl)(((R)-1-(4-chloro-2-methylphenyl)ethyl)amino)phosphoryl)ami-no)-2-methylpropanoate and propyl 2-(((S)-((((R)-1-(6-amino-9H-purin-9-yl)propan-2-yl)oxy)methyl)(((R)-1-(4-chloro-2-methyphenyl)ethyl)amino)phosphoryl)ami-no)-2-methylpropanoate], in that order: 260 nM and 2300 nM.
For `CCCOC(=O)C(C)(C)N[P@@](=O)(CO[C@H](C)Cn1cnc2c(N)ncnc21)N[C@@H](C)c1ccccc1OC` [Example 17B, propyl 2-(((R)-((((R)-1-(6-amino-9H-purin-9-yl)propan-2-yl)oxy)methyl)(((S)-1-(2-methoxyphenyl)ethyl)amino)phosphoryl)a-mino)-2-methylpropanoate and propyl 2-(((S)-((((R)-1-(6-amino-9H-purin-9-yl)propan-2-yl)oxy)methyl)(((S)-1-(2-methoxyphenyl)ethyl)amino)phosphoryl)a-mino)-2-methylpropanoate], the IC50 runs as follows: under setting [1], 84 nM; under setting [2], 510 nM.
Consider `CCCOC(=O)C(C)(C)N[P@@](=O)(CO[C@H](C)Cn1cnc2c(N)ncnc21)N[C@H](C)c1cccc(F)c1` [Example 9A, propyl 2-(((R)-((((R)-1-(6-amino-9H-purin-9-yl)propan-2-yl)oxy)methyl)(((R)-1-(3-fluorophenyl)ethyl)amino)phosphoryl)ami-no)-2-methylpropanoate and propyl 2-(((S)-((((R)-1-(6-amino-9H-purin-9-yl)propan-2-yl)oxy)methyl)(((R)-1-(3-fluorophenyl)ethyl)amino)phosphoryl)ami-no)-2-methylpropanoate], for which the IC50 came to 89 nM under setting [1] and 940 nM under setting [2].
As for `CCCOC(=O)C(C)(C)N[P@@](=O)(CO[C@H](C)Cn1cnc2c(N)ncnc21)N[C@@H](c1cccc(OC)c1)C(F)(F)F` [Example 28B, propyl 2-(((R)-((((R)-1-(6-amino-9H-purin-9-yl)propan-2-yl)oxy)methyl)(((S)-2,2,2-trifluoro-1-(3-methoxyphenyl)ethyl)amino)phosphoryl)a-mino)-2-methylpropanoate and propyl 2-(((S)-((((R)-1-(6-amino-9H-purin-9-yl)propan-2-yl)oxy)methyl)(((S)-2,2,2-trifluoro-1-(3-methoxyphenyl)ethyl)amino)phosphoryl)a-mino)-2-methylpropanoate], the IC50 by setting is: under setting [1], 17 nM; under setting [2], 120 nM.
As to `CCCOC(=O)C(C)(C)N[P@@](=O)(CO[C@H](C)Cn1cnc2c(N)ncnc21)N[C@H](c1cccc(F)c1)C(F)(F)F` [Example 22B, propyl 2-(((R)-((((R)-1-(6-amino-9H-purin-9-yl)propan-2-yl)oxy)methyl)(((R)-2,2,2-trifluoro-1-(3-fluorophenyl)ethyl)amino)phosphoryl)ami-no)-2-methylpropanoate and propyl 2-(((S)-((((R)-1-(6-amino-9H-purin-9-yl)propan-2-yl)oxy)methyl)(((R)-2,2,2-trifluoro-1-(3-fluorophenyl)ethyl)amino)phosphoryl)ami-no)-2-methylpropanoate], the IC50 reads like this: under setting [1], 42 nM; under setting [2], 330 nM.
The corresponding values for “propyl 2-(((R)-((((R)-1-(6-amino-9H-purin- 9-yl)propan-2-yl)oxy)methyl)((3- fluorobenzyl)amino)phosphoryl)amino)-2- methylpropanoate and propyl 2-(((S)-((((R)-1-(6-amino-9H-purin- 9-yl)propan-2-yl)oxy)methyl)((3- fluorobenzyl)amino)phosphoryl)amino)-2- methylpropanoate [Example 8A]” are 110 nM and 680 nM.
For the compound `CCCOC(=O)C(C)(C)N[P@@](=O)(CO[C@H](C)Cn1cnc2c(N)ncnc21)N[C@@H](c1ccc(C#N)cc1)C(F)(F)F.CCCOC(=O)C(C)(C)N[P@](=O)(CO[C@H](C)Cn1cnc2c(N)ncnc21)N[C@@H](c1ccc(C#N)cc1)C(F)(F)F` (mixture of isomers) [Example 24A, propyl 2-(((R)-((((R)-1-(6-amino-9H-purin-9-yl)propan-2-yl)oxy)methyl)(((S)-1-(4-cyanophenyl)-2,2,2-trifluoroethyl)amino)phosphoryl)amino)-2-methylpropanoate and propyl 2-(((S)-((((R)-1-(6-amino-9H-purin-9-yl)propan-2-yl)oxy)methyl)(((S)-1-(4-cyanophenyl)-2,2,2-trifluoroethyl)amino)phosphoryl)amino)-2-methylpropanoate], the concentration for half-maximal inhibition (IC50) under setting [1] amounted to 6.3 nM and the IC50 under setting [2] turned out to be 30 nM.
In the case of `CCCOC(=O)C(C)(C)NP(=O)(CO[C@H](C)Cn1cnc2c(N)ncnc21)N[C@@H](C)c1ccc(OC(F)(F)F)cc1` (stereo partly drawn) [Example 19B, propyl 2-(((R)-((((R)-1-(6-amino-9H-purin-9-yl)propan-2-yl)oxy)methyl)(((S)-1-(4-(trifluoromethoxy)phenyl)ethyl)amino)phos-phoryl)amino)-2-methylpropanoate and propyl 2-(((S)-((((R)-1-(6-amino-9H-purin-9-yl)propan-2-yl)oxy)methyl)(((S)-1-(4-(trifluoromethoxy)phenyl)ethyl)amino)phos-phoryl)amino)-2-methylpropanoate], the 50% inhibitory concentration (IC50) is, setting by setting: under setting [1], 84 nM; under setting [2], 360 nM.
For “propyl 2-(((R)-((((R)-1-(6-amino-9H-purin- 9-yl)propan-2-yl)oxy)methyl)(((R)-1-(4- cyanophenyl)-2,2,2- trifluoroethyl)amino)phosphoryl)amino)-2- methylpropanoate and propyl 2-(((S)-((((R)-1-(6-amino-9H-purin- 9-yl)propan-2-yl)oxy)methyl)(((R)-1-(4- cyanophenyl)-2,2,2- trifluoroethyl)amino)phosphoryl)amino)-2- methylpropanoate [Example 23A]”, the IC50 under setting [1] stood at 6.1 nM and the half-maximal inhibitory concentration (IC50) under setting [2] was found to be 37 nM.
Take `CCCOC(=O)C(C)(C)N[P@@](=O)(CO[C@H](C)Cn1cnc2c(N)ncnc21)N[C@@H](C)c1ccc(OC)cc1` [Example 14B, propyl 2-(((R)-((((R)-1-(6-amino-9H-purin-9-yl)propan-2-yl)oxy)methyl)(((S)-1-(4-methoxyphenyl)ethyl)amino)phosphoryl)a-mino)-2-methylpropanoate and propyl 2-(((S)-((((R)-1-(6-amino-9H-purin-9-yl)propan-2-yl)oxy)methyl)(((S)-1-(4-methoxyphenyl)ethyl)amino)phosphoryl)a-mino)-2-methylpropanoate]: the IC50 by setting is: under setting [1], 52 nM; under setting [2], 280 nM.
